Source: patent US9981972B2, “N-hydroxy bicyclic hydantoin carbamates as tools for identification of serine hydrolase targets” (ABIDE THERAPEUTICS, INC., priority 2014, dated 2018)

Assays:
LYPLA1/2 = experiment: Gel filtration to assess mode of action, HeLa cell lysate; assay type: biochemical, human; conditions: 200 nM or 1000 nM, FP-Rh labeling before and after gel filtration
Method: In this assay, a complex proteome was incubated with test compound and a fraction of the assay mixture was passaged over a Sephadex G-25M column before reaction with FP-Rh and SDS-PAGE analysis as described above.
Protocol Summary: HeLa cell lysate (1 mL of 1 mg/ml in DPBS) was treated with test compound (200 nM or 1000 nM, from 50× stock in DMSO) or DMSO only (no compound control). Test compounds were incubated for 30 minutes at 37° C. An aliquot (50 μL) was removed from each reaction, and the remaining sample was passaged over a Sephadex G-25M desalting column. An aliquot (50 μL, 1 mg/mL protein, eluted in DPBS) was removed, and pre- and post-filtration aliquots were reacted with FP-Rh (50× stock in DMSO; 2 μM final concentration). The reaction was incubated for 30 minutes at 25° C., quenched with 16 μL 4× SDS-PAGE loading buffer (reducing), separated by SDS-PAGE and visualized by in-gel fluorescent scanning. The percentage activity remaining was determined by measuring the integrated optical density of the LYPLA1/2 bands (quantified together) relative to a DMSO-only (no compound) control. The percent recovery was calculated by comparing percent inhibition before and after gel filtration for each test compound concentration.

[1] = Determination of glutathione reactivity; assay type: physicochemical; conditions: 10 μM compound, 50 μM glutathione, 37° C., 6 h
Method: Compound (10 μM) was incubated at 37° C. for 6 hours in the presence of 50 μM freshly prepared reduced glutathione. At 0 and 6 hours the samples were injected into the HPLC instrument. Peak area and retention time were compared between injections. Samples were evaluated for a glutathione dependent decrease in compound concentration. DMSO was added as a co-solvent as needed for solubility.

reactivity with glutathione [1]: did not show any reactivity
Compound: O=C(ON1C(=O)C2CN(C(=O)N3CCOCC3)CCN2C1=O)N1CCC(CCc2ccc(Cl)cc2)CC1 (centres unmarked) [Compound 1, 7-(morpholine-4-carbonyl)-1,3-dioxohexahydroimidazo[1,5-a]pyrazin-2(3H)-yl 4-(4-chloro-phenethyl)piperidine-1-carboxylate]
binding mode (gel filtration) (LYPLA1/2): irreversible inhibitor
